Experimental findings from ChEMBL document CHEMBL1138980, “Triazolo[1,5-a]pyrimidines as novel CDK2 inhibitors: protein structure-guided design and SAR” (Bioorg Med Chem Lett, 2006) are described below.

Assay [1] deals with Cyclin-dependent kinase 1 (Homo sapiens, UniProt P06493). In words: Inhibition of CDK1 using 100 uM ATP.
The subject of the next assay is HCT-116. Description: Antiproliferative activity against HCT116 colon cancer cell line. It counts as functional. The settings on record: Homo sapiens.
Assay [2] has as its target Cyclin-dependent kinase 2 (Homo sapiens, UniProt P24941). In words: Inhibition of CDK2 using 100 uM ATP.
A short description of assay [3]: Inhibition of PDK1. Details: species or system Homo sapiens.
The target in assay [4] is T1, Serine/threonine-protein kinase Chk1 (Homo sapiens, UniProt O14757).
T1 sequence (O14757 whole entry): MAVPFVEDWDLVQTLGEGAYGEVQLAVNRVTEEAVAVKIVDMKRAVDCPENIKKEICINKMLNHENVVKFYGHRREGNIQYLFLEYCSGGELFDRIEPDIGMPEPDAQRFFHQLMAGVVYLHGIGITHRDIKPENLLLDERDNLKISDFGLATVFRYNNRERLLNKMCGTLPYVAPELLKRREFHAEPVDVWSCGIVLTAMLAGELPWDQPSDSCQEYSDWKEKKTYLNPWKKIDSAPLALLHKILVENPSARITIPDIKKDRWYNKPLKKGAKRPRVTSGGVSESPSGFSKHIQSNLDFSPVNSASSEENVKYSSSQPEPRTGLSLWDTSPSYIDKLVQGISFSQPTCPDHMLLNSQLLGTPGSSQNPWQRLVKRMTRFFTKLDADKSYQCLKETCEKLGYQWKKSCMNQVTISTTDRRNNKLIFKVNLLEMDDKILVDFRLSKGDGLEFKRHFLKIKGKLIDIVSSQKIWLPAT
In words: Inhibition of Chk1.

Assay [5] concerns the target Glycogen synthase kinase-3 beta (Homo sapiens, UniProt P49841). In words: Inhibition of GSK3-beta using 10 uM ATP.

Glycogen synthase kinase-3 beta, sequence (P49841 whole entry): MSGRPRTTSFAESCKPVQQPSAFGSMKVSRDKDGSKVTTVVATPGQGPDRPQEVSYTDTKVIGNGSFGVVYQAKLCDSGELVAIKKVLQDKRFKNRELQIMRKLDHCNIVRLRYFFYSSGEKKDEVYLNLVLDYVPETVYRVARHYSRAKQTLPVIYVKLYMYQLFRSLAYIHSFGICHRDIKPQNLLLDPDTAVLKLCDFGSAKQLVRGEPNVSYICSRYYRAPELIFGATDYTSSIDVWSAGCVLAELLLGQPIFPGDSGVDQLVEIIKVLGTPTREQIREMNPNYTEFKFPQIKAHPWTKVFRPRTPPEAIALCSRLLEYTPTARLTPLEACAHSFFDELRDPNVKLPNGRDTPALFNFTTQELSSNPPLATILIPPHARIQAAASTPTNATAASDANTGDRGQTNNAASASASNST
Cyclin-dependent kinase 1, sequence (P06493 whole entry): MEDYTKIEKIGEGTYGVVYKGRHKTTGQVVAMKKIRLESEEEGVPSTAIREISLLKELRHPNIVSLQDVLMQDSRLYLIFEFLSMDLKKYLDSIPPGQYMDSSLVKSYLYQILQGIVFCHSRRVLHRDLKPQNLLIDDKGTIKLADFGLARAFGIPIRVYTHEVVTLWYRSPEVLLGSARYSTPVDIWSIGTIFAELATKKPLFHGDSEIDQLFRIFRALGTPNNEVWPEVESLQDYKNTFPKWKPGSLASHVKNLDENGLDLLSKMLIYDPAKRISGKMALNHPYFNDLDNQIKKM

As usually defined, the IC50 is the concentration needed to halve the response being measured. Lower therefore signals greater potency in that assay. One may read the GI50 as the concentration at which growth is held to half of that of the control. High values mean lower sensitivity of the cells, low ones greater sensitivity of the cells. For the molecule `CN(C)S(=O)(=O)c1ccc(Nc2cc(N[C@H]3CC[C@H](N)CC3)nc3ncnn23)cc1`, the IC50 is 5.6 µM in assay [1]; 0.12 µM in assay [2]; above 200 µM in assay [3]; 21 µM in assay [4]; 20 µM in assay [5]. The molecule further returned a 50% growth inhibitory concentration (GI50) with HCT-116 above 80 µM.
As to `NS(=O)(=O)c1ccc(Nc2cc(OC3CCCCC3)nc3ncnn23)cc1`, the IC50 in assay [1] amounted to 0.14 µM; in assay [5] it was 0.19 µM. Moreover, growth in the assay on HCT-116 was halved (GI50) at 25 µM.
In the assay with HCT-116, `NS(=O)(=O)c1ccc(Nc2cc(NC3CCCCC3)nc3ncnn23)cc1` yielded a GI50 of 31 µM. The molecule further showed an IC50 in assay [5] of 0.97 µM.
With `CCN(CC)c1cc(Nc2ccc(S(N)(=O)=O)cc2)n2ncnc2n1`, the IC50 in assay [1] amounted to 3.4 µM; in assay [2] it was 0.4 µM; in assay [5], 11 µM. The GI50 with HCT-116 stood at 23 µM.
On to `NS(=O)(=O)c1ccc(Nc2cc(N[C@H]3CC[C@H](O)CC3)nc3ncnn23)cc1`, for which, in the assay with HCT-116, the GI50 amounted to 39 µM.
Molecule `Brc1cccc(-c2cc(NCc3ccncc3)n3nccc3n2)c1` showed a GI50 in the assay on HCT-116 of 8 µM.
As for `NS(=O)(=O)c1ccc(Nc2cc(OCC3CCCCC3)nc3ncnn23)cc1`, the midpoint of inhibition in assay [5], the IC50, lay at 29 µM.
On to `CS(=O)(=O)c1ccc(Nc2cc(N[C@H]3CC[C@H](N)CC3)nc3ncnn23)cc1`, for which the IC50 in assay [1] was 16 µM; in assay [5], 43 µM. In the assay with HCT-116, the GI50 is above 80 µM.
In the case of `NS(=O)(=O)c1ccc(Nc2nc(OCC3CCCCC3)c3nc[nH]c3n2)cc1`, the IC50 in assay [3] is below 0.5 µM; in assay [4] it was below 0.5 µM; in assay [5], 0.04 µM.
As to `NS(=O)(=O)c1ccc(Nc2cc(N[C@H]3CC[C@H](N)CC3)nc3ncnn23)cc1`, the GI50 with HCT-116 is above 80 µM. The IC50 turned out to be 43 µM in assay [3] and 0.78 µM in assay [5].
In the case of `N[C@H]1CC[C@H](Nc2cc(Nc3ccc(S(=O)(=O)c4ccccc4)cc3)n3ncnc3n2)CC1`, the IC50 in assay [1] is 4.3 µM; in assay [5], 50 µM. The GI50 in the assay with HCT-116 is above 80 µM.
